The source of these data is patent US5599811A, “Benzothiazine dioxides as endothelin antagonists” (Warner-Lambert Company, priority 1995, dated 1997).

The subject of test [1] is ischemia-induced acute renal failure. The settings on record: anesthetized dogs (title of citation); cited from earlier work.
Test [2] has as its system basilar artery. The settings on record: after 7 days, canine two-hemorrhage model of SAH; cited from earlier work.
For test [3], the system named is cerebral vasospasm following SAH. The settings on record: rat; cited from earlier work.
Another test relates to acute renal ischemia. The note with it: rats; cited from earlier work.
Another test deals with subarachnoid hemorrhage. The note with it: rats; cited from earlier work.
In test [4] the target is T1, ETA (Oryctolagus cuniculus, UniProt A5A8K3).
T1 construct: cultured rabbit renal artery vascular smooth muscle cells; endogenous in cells; host or cells: cultured rabbit renal artery vascular smooth muscle cells
T1 sequence (A5A8K3 21-427): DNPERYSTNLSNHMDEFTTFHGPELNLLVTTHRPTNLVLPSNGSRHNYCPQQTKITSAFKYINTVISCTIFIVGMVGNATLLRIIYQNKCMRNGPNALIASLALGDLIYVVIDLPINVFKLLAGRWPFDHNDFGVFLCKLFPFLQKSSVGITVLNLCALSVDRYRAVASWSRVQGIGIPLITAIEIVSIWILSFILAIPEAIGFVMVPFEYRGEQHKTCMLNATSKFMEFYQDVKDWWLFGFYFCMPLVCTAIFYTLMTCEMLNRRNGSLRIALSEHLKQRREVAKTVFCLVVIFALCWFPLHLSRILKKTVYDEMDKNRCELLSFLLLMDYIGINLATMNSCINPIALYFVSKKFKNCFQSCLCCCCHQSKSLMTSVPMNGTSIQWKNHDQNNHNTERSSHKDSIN
Put plainly: VERA-A: antagonism of ET-1 stimulated vasoconstriction in the rabbit femoral artery. The settings on record: rabbit femoral artery rings, antagonist added 30 minutes before ET-1; read-out: VERAA pA2 (converted).

For test [5], the target named is T1, ETA. Put plainly: AAR: inhibition of ET-1 stimulated arachidonic acid release in cultured rabbit renal artery vascular smooth muscle cells. The test is classed as cell-based. The settings on record: 0.3 nM ET-1, 30 minutes. From the text:
(§1) The compounds of Formula I are valuable antagonists of endothelin.

The target of another test is T2, recombinant human ETB R (Homo sapiens, UniProt P24530).
T2 construct: expressed in transfected cells; host or cells: CHO-K1 cells
T2 sequence (P24530 27-442): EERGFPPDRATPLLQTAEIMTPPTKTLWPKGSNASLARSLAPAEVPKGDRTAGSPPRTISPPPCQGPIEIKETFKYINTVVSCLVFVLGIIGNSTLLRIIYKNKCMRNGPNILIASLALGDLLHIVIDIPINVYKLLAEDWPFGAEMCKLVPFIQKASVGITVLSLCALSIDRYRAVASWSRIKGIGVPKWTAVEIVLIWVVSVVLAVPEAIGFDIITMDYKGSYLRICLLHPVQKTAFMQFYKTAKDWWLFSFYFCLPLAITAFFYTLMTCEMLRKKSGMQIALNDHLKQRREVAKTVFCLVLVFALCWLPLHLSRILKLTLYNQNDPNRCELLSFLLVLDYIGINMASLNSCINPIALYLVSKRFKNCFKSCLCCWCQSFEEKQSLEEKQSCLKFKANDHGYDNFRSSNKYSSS
The test is classed as binding. The note with it: [125I]-ET-1 40 pM, 2 hours at 37° C.; read-out: HERBAB IC50. How it is done:
as §1
(§2) The following cultured cells were used in binding experiments: rabbit renal artery vascular smooth muscle cells (ERBA-A), Ltk-cells expressing recombinant human ETA R (HERBA-A), and CHO-K1 cells expressing recombinant human ETB R (HERBA-B).
(§3) Membranes were prepared from cultured cells by lysing cells in cold lysis buffer (5 mM HEPES, 2 mM EDTA, pH 7.4) and homogenizing with a Dounce "A" homogenizer. The homogenate was centrifuged at 30,000× g for 20 minutes at 4° C. Membrane pellets were suspended in cold buffer containing 20 mM Tris, 2 mM EDTA, 200 μM Pefabloc, 10 μM phosphoramidon, 10 μM leupeptin, 1 μM pepstatin at pH 7.4 and frozen at -80° C. until use. Membranes were thawed and homogenized with a Brinkmann Polytron then diluted in tissue buffer containing 20 mM Tris, 2 mM EDTA, 200 μM Pefabloc, and 100 μM bacitracin (pH 7.4). Radioligand and competing ligands were prepared in binding buffer containing 20 mM Tris, 2 mM EDTA, and 0.1% BSA.
(§4) Competing binding assays were initiated by combining membranes, [125I]-ET-1 (40 pM) and the competing ligand in a final volume of 250 μL and incubating for 2 hours at 37° C. The assay was terminated by filtration over Whatman GF/B filters which were presoaked with 50 mM Tris, pH 7.4 containing 0.2% BSA and 100 μM bacitracin. Nonspecific binding was defined as binding in the presence of 100 nM ET-1.

The next test deals with T3, recombinant human ETA R (Homo sapiens, UniProt P25101).
T3 construct: expressed in transfected cells; host or cells: Ltk- cells
T3 sequence (P25101 21-427): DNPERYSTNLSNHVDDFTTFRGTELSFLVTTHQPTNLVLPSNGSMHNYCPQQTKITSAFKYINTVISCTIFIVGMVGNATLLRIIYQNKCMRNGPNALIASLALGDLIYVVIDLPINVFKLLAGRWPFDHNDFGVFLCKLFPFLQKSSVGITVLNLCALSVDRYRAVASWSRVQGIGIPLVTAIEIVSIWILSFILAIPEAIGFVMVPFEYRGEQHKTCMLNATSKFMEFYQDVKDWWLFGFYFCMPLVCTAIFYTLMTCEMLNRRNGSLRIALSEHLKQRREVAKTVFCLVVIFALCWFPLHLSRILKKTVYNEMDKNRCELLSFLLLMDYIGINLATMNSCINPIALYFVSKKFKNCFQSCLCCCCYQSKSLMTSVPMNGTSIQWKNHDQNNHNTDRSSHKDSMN
Type of test: binding. The settings on record: [125I]-ET-1 40 pM, 2 hours at 37° C.; read-out: HERBAA IC50. How it is done: as §1, §2, §3, §4

Test [6] relates to basilar artery. The settings on record: rabbits with SAH; cited from earlier work.
The test system of another test is congestive heart failure. The settings on record: rat, in vivo; cited from earlier work.
The subject of test [7] is cerebral vasospasm following subarachnoid hemorrhage. The note with it: in vivo; cited from earlier work.
A further test concerns allergic sheep. The settings on record: cited from earlier work.
In test [8] the test system is cerebral vasospasm following SAH. The note with it: rabbit; cited from earlier work.

Read-outs that look alike come from different tables or passages of the source. Where a SMILES comes first, the peptide text is derived from it. [ ]: non-standard residue; d: D form.

Take `CCCOc1ccc2c(c1)[C@@H](c1ccc(OC)cc1OCC(=O)O)[C@H](C(=O)O)[C@H]2c1ccc2c(c1)OCO2` [SB 209670]: the “effect in ischemia-induced acute renal failure” value in test [1] is reported as “beneficial in ischemia-induced acute renal failure”.

For the molecule FR 139317, the “inhibition of vasoconstriction of the basilar artery” value in the test with basilar artery [2] is listed as “significantly inhibited the vascoconstriction of the basilar artery”.

As to `COc1cccc(Oc2c(NS(=O)(=O)c3ccc(C(C)(C)C)cc3)ncnc2OCCO)c1` [Ro 46-2005], in [3], the “prevention of early cerebral vasospasm following SAH” value is on record as “prevent early cerebral vasospasm following SAH”. Moreover, the “effect in model of acute renal ischemia” value in the test on acute renal ischemia is on record as “effective”. Besides, in the test with subarachnoid hemorrhage, the “effect in model of subarachnoid hemorrhage” value is on record as “effective”.

As to `O=C(O)C1=C(Sc2ccc3c(c2)OCO3)c2ccccc2S(=O)(=O)N1Cc1ccc2c(c1)OCO2` [Example 42, 2-Benzo[1,3]dioxol-5-ylmethyl-4-(benzo[1,3]dioxol-5-ylsulfanyl)-1,1-dioxo-1,2-dihydro-1λ^6-benzo[e][1,2]thiazine-3-carboxylic acid], the Kb at ETA [4] is over 10000 nM. Besides, the IC50 came out at 1200 nM at ETA [5], 5400 nM on recombinant human ETB R and 66 nM at recombinant human ETA R.

As to `COc1ccccc1Oc1c(NS(=O)(=O)c2ccc(C(C)(C)C)cc2)nc(-c2ncccn2)nc1OCCO` [Bosentan], in the test on basilar artery [6], the “reduction of basilar artery cross-sectional area compared to sham rabbits” value is recorded as 36±7%. Further, in the test with congestive heart failure, the “treatment of congestive heart failure” value is “useful in the treatment of congestive heart failure”.

On to `CC(C)C[C@@H]1NC(=O)[C@@H](C(C)C)NC(=O)[C@@H]2CCCN2C(=O)[C@@H](CC(=O)O)NC(=O)[C@@H](Cc2c[nH]c3ccccc23)NC1=O` [BQ-123] (cyclo(L[dW][dD]P[dV])), for which the “prevention of early cerebral vasospasm following SAH” value in [3] and in test [8] was “prevents early cerebral vasospasm following SAH” throughout. For the same molecule, the “prevention of early cerebral vasospasm following subarachnoid hemorrhage” value in test [7] was “prevent early cerebral vasospasm following subarachnoid hemorrhage”. Further, in the test with allergic sheep, the “block of ET-1-induced bronchoconstriction and tracheal smooth muscle contraction” value is “block ET-1-induced bronchoconstriction and tracheal smooth muscle contraction”.

One may read the IC50 as the concentration at which inhibition is half-maximal.
